Results on 6 compounds are retold here after patent publication US20240148821A1, “PHARMACEUTICAL USE OF CYCLIC PEPTIDE COMPOUND” (CHUGAI SEIYAKU KABUSHIKI KAISHA, priority 2021, published 2024).

Assay [1] has as its system Human pancreatic cancer cell line AsPC-1 (G12D mutation Kras). Put plainly: AsPC-1 cell growth inhibition (AsPC-1 CGI). Format: cell-based. Particulars: read-out: AsPC-1 cell growth inhibition, 50% growth inhibitory concentration (IC50 value); 96 hours, CellTiter-Glo, values classified in ranges. On the technique in general: ATP-based viability assays read luminescence as a measure of living cells.
Description: Test compounds were serially dilated with dimethyl sulfoxide, and 200 nL was then dispensed to a U-bottom 96-well plate using Labcyte Echo. […] The cell suspension was dispensed to a. plate containing a test compound at 100 μL per well and incubated at 37° C. in a 5% carbon dioxide gas incubator. 96 hours later, 80 μL of CellTiter-Glo (Promega) was added to each well and fluorescence was measured.

For assay [2], the target named is protein-protein interaction between Kras and SOS1 (biotin-tagged human Kras loaded with GDP, His-tagged human SOS1) (Homo sapiens (Human), UniProt P01116, G12D). The experiment in a line: Protein-protein interaction inhibition between Kras and SOS1 (KrasG12D-SOS PPI) using AlphaScreen.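 Further: kras produced in E. coli, Ni-coupled donor beads and streptavidin acceptor beads, excitation 680 nm with emission detected at 520–620 nm via singlet oxygen transfer.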 The class given is biochemical. The following applies: AlphaScreen; biotin-tagged human Kras loaded with GDP, His-tagged human SOS1; read-out: KRAS G12D-SOS PPI IC50. Background: Alpha assays give light when donor and acceptor beads are brought close together.

Numbered stars: 1 amine (or outer) side, 2 acyl side, 3 side chain; on linkers, the order of the positions; unused ones are H or OH. Bridge positions count the residues as written; N and C are the ends. Square brackets hold non-standard residues; d marks the D form. Peptide text beside a SMILES is read from it. * marks the point of attachment. hPhe(3,5-F2-4-CF3) = N[C@@H](CCc1cc(F)c(C(F)(F)F)c(F)c1)C(=O)O; hPhe(3-Cl-4-CF3) = N[C@@H](CCc1ccc(C(F)(F)F)c(Cl)c1)C(=O)O; X20 = Cc1cncc(C[C@@H](C(=O)[*:2])N(C)[*:1])c1; NEtPhe(4-Me) = CCN[C@@H](Cc1ccc(C)cc1)C(=O)O; NMePhe(4-Cl) = CN[C@@H](Cc1ccc(Cl)cc1)C(=O)O; NMedβ3hAla = C[C@H](CC(=O)[*:2])N(C)[*:1]; NMeGly(cPent) = CN[C@H](C(=O)O)C1CCCC1; NMeCha = CN[C@@H](CC1CCCCC1)C(=O)O; Hyp = O=C(O)[C@@H]1C[C@@H](O)CN1; NMeChg = CN[C@H](C(=O)O)C1CCCCC1; NMeI = CC[C@H](C)[C@H](NC)C(=O)O; NMeD = CN[C@@H](CC(=O)O)C(=O)O; NMeL = CN[C@@H](CC(C)C)C(=O)O; NMeV = CN[C@H](C(=O)O)C(C)C; d(β3hA) = C[C@@H](N)CC(=O)O; Azetidin(1-yl) = C1CN(*)C1; NMeA = CN[C@@H](C)C(=O)O; Nphe = O=C(O)CNCc1ccccc1; Piperidide = C1CCN(*)CC1; Ac5c = NC1(C(=O)O)CCCC1; Aze = O=C(O)[C@@H]1CCN1; Sar = CNCC(=O)O

As to `CC[C@H](C)[C@@H]1NC(=O)[C@H](C)N(C)C(=O)C[C@@H](C(=O)N2CCCCC2)N(C)C(=O)[C@H](C(C)C)N(C)C(=O)C2(CCCC2)NC(=O)CN(Cc2ccccc2)C(=O)[C@H](CCc2ccc(C(F)(F)F)c(Cl)c2)NC(=O)CN(C)C(=O)[C@H](CC2CCCCC2)N(C)C(=O)CN(C)C(=O)CN(C)C1=O` [Compound 1676] ([NMeA]I[Sar][Sar][NMeCha][Sar][hPhe(3-Cl-4-CF3)][Nphe][Ac5c][NMeV][NMeD]-Piperidide; lactam N-11), the IC50 is above 500 nM in assay [1] and 1.6 nM in assay [2].

`CCO[C@@H]1C[C@H]2C(=O)NC3(CCCC3)C(=O)N(C)[C@@H](C3CCCC3)C(=O)N(C)[C@H](C)CC(=O)N(C)[C@@H](CC(C)C)C(=O)N[C@@H]([C@@H](C)CC)C(=O)N(C)[C@@H](C)C(=O)N3CC[C@H]3C(=O)N(CC)[C@@H](Cc3ccc(C)cc3)C(=O)N(C)CC(=O)N[C@@H](CCc3cc(F)c(C(F)(F)F)c(F)c3)C(=O)N2C1` [Compound 432] (cyclo([Ac5c][NMeGly(cPent)][NMedβ3hAla][NMeL]I[NMeA][Aze][NEtPhe(4-Me)][Sar][hPhe(3,5-F2-4-CF3)][Hyp](Et))): the IC50 was at most 20 nM in assay [1] and 4.5 nM in assay [2].

For the compound `CC[C@H](C)[C@@H]1NC(=O)[C@H](CC(C)C)N(C)C(=O)C[C@@H](C(=O)N2CCCCC2)N(C)C(=O)[C@H](C2CCCCC2)N(C)C(=O)C2(CCCC2)NC(=O)[C@H](Cc2cncc(C)c2)N(C)C(=O)[C@H](CCc2ccc(C(F)(F)F)c(Cl)c2)NC(=O)CN(C)C(=O)[C@H](CC2CCCCC2)N(C)C(=O)CN(C)C(=O)CN(C)C1=O` [Compound 1087] ([NMeL]I[Sar][Sar][NMeCha][Sar][hPhe(3-Cl-4-CF3)][X20][Ac5c][NMeChg][NMeD]-Piperidide; lactam N-11), the IC50 in assay [1] was above 500 nM; in assay [2], 15 nM.

As to `CC[C@H](C)[C@@H]1NC(=O)[C@H](CC(C)C)N(C)C(=O)C[C@@H](C)NC(=O)[C@H](C2CCCC2)N(C)C(=O)C2(CCCC2)NC(=O)[C@@H]2CCCN2C(=O)[C@H](CCc2ccc(C(F)(F)F)c(Cl)c2)NC(=O)CN(C)C(=O)[C@H](C)N(C)C(=O)[C@@H]2CCN2C(=O)[C@H](C)N(C)C1=O` [Compound 1300] (cyclo([Ac5c][NMeGly(cPent)][d(β3hA)][NMeL]I[NMeA][Aze][NMeA][Sar][hPhe(3-Cl-4-CF3)]P)), the IC50 in assay [1] was above 500 nM; in assay [2], 94 nM.

As for `CC[C@H](C)[C@@H]1NC(=O)[C@H](CC(C)C)N(C)C(=O)C[C@@H](C(=O)N2CCCCC2)N(C)C(=O)[C@H](C2CCCC2)N(C)C(=O)C2(CCCC2)NC(=O)[C@@H]2CCCN2C(=O)[C@H](CCc2ccc(C(F)(F)F)c(Cl)c2)NC(=O)CN(C)C(=O)[C@H](Cc2ccc(Cl)cc2)N(C)C(=O)[C@@H]2CCN2C(=O)[C@H](C)N(C)C1=O` [Compound 120] ([NMeL]I[NMeA][Aze][NMePhe(4-Cl)][Sar][hPhe(3-Cl-4-CF3)]P[Ac5c][NMeGly(cPent)][NMeD]-Piperidide; lactam N-11), the IC50 in assay [1] was at most 20 nM; in assay [2], 0.55 nM.

Take `CC[C@H](C)[C@@H]1NC(=O)[C@H](CC(C)C)N(C)C(=O)C[C@@H](C(=O)N2CCC2)N(C)C(=O)[C@H]([C@@H](C)CC)N(C)C(=O)C2(CCCC2)NC(=O)[C@@H]2CCCN2C(=O)[C@H](CCc2ccc(C(F)(F)F)c(Cl)c2)NC(=O)CN(C)C(=O)[C@H](CC2CCCCC2)N(C)C(=O)[C@@H]2CCN2C(=O)[C@H](C)N(C)C1=O` [Compound 150] ([NMeL]I[NMeA][Aze][NMeCha][Sar][hPhe(3-Cl-4-CF3)]P[Ac5c][NMeI][NMeD]-{Azetidin(1-yl)}; lactam N-11): the IC50 was at most 20 nM in assay [1] and 1.3 nM in assay [2].
